Results on one compound are retold here after patent US7893266B2, “Detection of cancer cells in vitro using sigma-2 receptor ligands as radiotracers” (Washington University, priority 2003, dated 2011).

In this data set the test system is EMT-6 mammary tumors. The data set is described as follows: Biodistribution study of [76Br]6 (Example 4), low and high dose groups. It is filed as in vivo, Balb/C mice. An excerpt:
This compound was studied in mature Balb/C mice that were implanted with EMT-6 mammary tumors. The mice were implanted in the nape of the neck 7 days prior to the study. The biodistribution study consisted of three groups: 1 hr low dose (≈6 μCi), 4 hr low dose and a 4 hr high dose (≈150 μCi). The % ID/g at 1 hr for tumor, brain, fat, blood and liver were 4.0±0.4, 0.25±0.02, 1.1±0.4, 2.1±0.3 and 5.4±0.4, respectively. At 4 hr for the low dose animals the values decreased to 1.2±0.2, 0.15±0.02, 0.3±0.2, 0.82±0.08 and 1.3±0.2, respectively. […] The activity injected into the high dose animals was enough to perform microPET® imaging studies. […] This initial study has shown that this σ2 receptor compound has a high uptake into EMT-6 mammary tumors and can be imaged non-invasively. (MicroPET® is a dedicated PET scanner designed for high resolution imaging of small laboratory animals. It is available from Concorde Microsystems, Inc. 10427 Cogdill Rd, Suite 500 Knoxville, Tenn. 37932 USA.)

Take `COc1cc2c(cc1OC)CN(CCCCNC(=O)c1cc([76Br])cc(OC)c1OC)CC2` [[^76Br]6]: the “% ID/g for the 4 hr high dose animals versus low dose” value (4 hr, high dose (≈150 μCi)) is reported as “not significantly different”. In addition, under “1 hr, low dose (≈6 μCi)”, the “% ID/g blood” value is recorded as 2.1±0.3 % ID/g, the “% ID/g brain” value is reported as 0.25±0.02 % ID/g, the “% ID/g fat” value was determined as 1.1±0.4 % ID/g and the “% ID/g liver” value was 5.4±0.4 % ID/g. Moreover, the “% ID/g tumor” value (1 hr, low dose (≈6 μCi)) is on record as 4.0±0.4 % ID/g. Also, where the note is “4 hr, low dose”, the “% ID/g blood” value came out at 0.82±0.08 % ID/g, the “% ID/g brain” value was 0.15±0.02 % ID/g, the “% ID/g fat” value amounted to 0.3±0.2 % ID/g and the “% ID/g liver” value came out at 1.3±0.2 % ID/g. For the same compound, for the setting “4 hr, low dose”, the “% ID/g tumor” value stood at 1.2±0.2 % ID/g.
